In one experiment the test system is HCT-8. Nature of the experiment: Cytotoxicity in HCT-8 cell line. Format: functional, cell-based. The settings on record: Homo sapiens.
For the next experiment, the system named is RPMI-7951. The experiment in a line: Cytotoxicity in RPMI-7951 cell line. The settings on record: Homo sapiens. Type of experiment: functional, cell-based.
The subject of another experiment is TE-671. The experiment in a line: Cytotoxicity in TE671 cell line. Format: functional, cell-based. As to conditions: Homo sapiens.
The test system of the next experiment is P388. Nature of the experiment: Cytotoxicity in P-388 cell line. The settings on record: Mus musculus. Format: functional, cell-based.
The species named for the next experiment is Oryctolagus cuniculus. The experiment in a line: Compound was tested for inhibition of platelet aggregation induced by arachidonic acid(100 uM) at a dose of 10 ug/mL in rabbit. Type of experiment: functional.

In brackets after ≈: the same amount, converted by molar mass.

`COC1=CC(=O)c2[nH]c3cc(O)c(C)cc3c2C1=O`: the IC50 (commonly the concentration at which inhibition is half-maximal) in the experiment on HCT-8 was determined as 0.92 µg/mL (≈ 3.58 µM); in the experiment on RPMI-7951, 0.22 µg/mL (≈ 0.855 µM); with TE-671, 3.82 µg/mL (≈ 14.8 µM).

As to `COC1=CC(=O)c2[nH]c3ccc(C)c(O)c3c2C1=O`, the half-inhibitory concentration (IC50) with HCT-8 came to 1.82 µg/mL (≈ 7.07 µM); with P388 it was 2.24 µg/mL (≈ 8.71 µM); with RPMI-7951 it was 0.33 µg/mL (≈ 1.28 µM); with TE-671 it was 0.17 µg/mL (≈ 0.661 µM). The Inhibition (usually the share of the control response that was lost under treatment) in the experiment filed under Oryctolagus cuniculus is given as 100%.

For the origin of these results see ChEMBL document CHEMBL1127996, “Structure and synthesis of clausenaquinone-a. A novel carbazolequinone alkaloid and bioactive principle from Clausena excavata” (Bioorg Med Chem Lett, 1994).
